From patent US7737177B2, “Processes for preparing crystalline and amorphous mupirocin calcium” (priority 2001, dated 2010)
Where two headings read alike, the source gives them in different places. Blank lines part the entries; values can stand above or below the compound they belong to.

Columns and labels:
[1] = thermal stability reported by Baker et al. (purity after storage); type: physicochemical
From the text: The Baker et al. patents disclose preparing amorphous form of mupirocin calcium by crystallization from an aqueous solution consisting of 50% methanol followed by trituration with dry ether.
Baker et al. expresses its assay in relation to psuedomonic acid. The assay of the present invention is expressed differently, as illustrated by Table-1.
In connection with amorphous mupirocin calcium, the assay of the present invention can be converted into the assay expressed as in Baker et al. by multiplying with a factor of 0.9637. This 89.9% assay of Baker et al. corresponds to a 93.29% assay as calculated by the method of the present invention.
In connection with mupirocin calcium dihydrate, the 92.1% assay of Baker et al. corresponds to a 98.88% assay as expressed by the present invention.

[2] = thermal stability on storage (HPLC assay, Karl Fischer water, HPLC impurities); type: physicochemical; parameters: Total Impurity: unit not given here
Experimental: As used herein, the term “assay” refers to a determination of purity/presence of a quantity of a substance as described by the European Pharmacopoeia (“EP”). EUROPEAN PHARMACOPOEIA, Fourth Edition, pp 1602-1604, Council of Europe, Strasbourg, 2001. The assay is done with high pressure liquid chromatography (“HPLC”).
As used herein, the term “total impurity” refers to the sum of all areas under the peaks of impurities as described by the European Pharmacopoeia. It is determined by another HPLC method and is different than the assay.
The present invention provides for amorphous mupirocin calcium with high thermal stability. Thermal stability is defined as the ability to resist chemical degradation during storage, especially in light of the conditions during storage. The higher purity and […] of amorphous mupirocin calcium makes it less susceptible to chemical degradation during storage.
Glass ampoule in Aluminum laminate bag with silica gel was used as the packing system.
Relative humidity was exactly 60%.
The water content was measured by the Karl Fischer method.
High pressure liquid chromatography (HPLC) was performed on a Zorbax® C-8 (5 um; 250×4.6 mm), reverse phase column with ammonium acetate buffer solution in water: tetrahydrofuran mixture as eluent. Detected by U.V. spectroscopy at λ=240 nm.
The assay also used the same HPLC instruments.

[3] = cited from earlier work; for Purity after storage: expressed as a percentage of pure free pseudomonic acid
[4] = Baker et al., Column 1, Lines 31-33; cited from earlier work
[5] = test system: Gram positive bacteria (e.g. Staphylococcus aureus, Streptococcus pyogenes, Streptococcus pneumoniae, Klebsiella pneumoniae) and some Gram negative bacteria (e.); settings: mainly Gram positive and some Gram negative bacteria; cited from earlier work
[6] = both for humans and animals; cited from earlier work
[7] = according to the maker of Bactroban, cited from earlier work
[8] = 1 Kg batch, 0 months at 2–8° C.
[9] = 1 Kg batch, 0.5 months at 2–8° C.
[10] = 1 Kg batch, 0.5 months at 25° C.
[11] = 1 Kg batch, 1.0 months at 2–8° C.
[12] = 1 Kg batch, 2.0 months at 2–8° C.
[13] = 187.2 grams batch, 2° C.-8° C. 60% RH, 0 month
[14] = 187.2 grams batch, 2° C.-8° C. 60% RH, 1 month
[15] = 187.2 grams batch, 2° C.-8° C. 60% RH, 2 months
[16] = 187.2 grams batch, 2° C.-8° C. 60% RH, 3 months
[17] = 187.2 grams batch, 25° C./60% RH, 0 month
[18] = 187.2 grams batch, 25° C./60% RH, 1 month
[19] = 187.2 grams batch, 25° C./60% RH, 2 months
[20] = 187.2 grams batch, 25° C./60% RH, 3 months

SMILES: C/C(=C\C(=O)OCCCCCCCCC(=O)O)C[C@@H]1OC[C@H](C[C@@H]2O[C@H]2[C@@H](C)[C@H](C)O)[C@@H](O)[C@H]1O [Pseudomonic acid A, 9-{4[5S(2S,3S-epoxy-5S-hydroxy-4S-methylhexyl)-3R,4R-dihydroxy-tetrahydropyran-2S-yl]-3-methylbut-2(E)-enoyloxy}nonanoic acid]
- minimal inhibiting concentration [5]: 0.02 to 0.5 mg/L
- toxicity [6]: very low toxicity
- Purity after storage ([3]; 2 weeks, 37° C.): 90.61%
- Purity after storage ([3]; 2 weeks, 50° C.): 51.18%
- Purity after storage ([3]; 2 weeks, 80° C.): 0%
- Purity after storage ([3]; 8 days, 80° C.): 0%
- Purity after storage ([3]; 10 days, 50° C.): 71.59%

SMILES: C/C(=C\C(=O)OCCCCCCCCC(=O)[O-])C[C@@H]1OC[C@H](C[C@@H]2O[C@H]2[C@@H](C)[C@H](C)O)[C@@H](O)[C@H]1O.C/C(=C\C(=O)OCCCCCCCCC(=O)[O-])C[C@@H]1OC[C@H](C[C@@H]2O[C@H]2[C@@H](C)[C@H](C)O)[C@@H](O)[C@H]1O.O.O.[Ca+2] [mupirocin calcium]
- side effects ([7]; administered intravenously at 250 mg): without any major side effects
- side effects ([7]; administered orally at 500 mg): without any major side effects

Continued, in another order:

- Purity after storage ([1]; 2 weeks, 37° C., expressed as a percentage of mupirocin calcium anhydrous): 91.14%
- Purity after storage ([1]; 2 weeks, 50° C., expressed as a percentage of mupirocin calcium anhydrous): 74.71%
- Purity after storage ([1]; 2 weeks, 80° C., expressed as a percentage of mupirocin calcium anhydrous): 13.05%
- Purity after storage ([1]; 8 days, 80° C., expressed as a percentage of mupirocin calcium anhydrous): 27.05%
- Purity after storage ([1]; 10 days, 50° C., expressed as a percentage of mupirocin calcium anhydrous): 77.70%
- level of impurity MUP II (impurity E in the EP) ([2]; after storage for one month): more than 1%
- total level of impurities (not assay) ([2]; after two months of storage, FIGS. 9 and 10): more than 3.5%
SMILES: C/C(=C\C(=O)OCCCCCCCCC(=O)[O-])C[C@@H]1OC[C@H](C[C@@H]2O[C@H]2[C@@H](C)[C@H](C)O)[C@@H](O)[C@H]1O.C/C(=C\C(=O)OCCCCCCCCC(=O)[O-])C[C@@H]1OC[C@H](C[C@@H]2O[C@H]2[C@@H](C)[C@H](C)O)[C@@H](O)[C@H]1O.O.O.[Ca+2] [Anhydrous amorphous mupirocin calcium, mupirocin calcium]
- Purity after storage ([3]; 2 weeks, 37° C.): 87.83%
- Purity after storage ([3]; 2 weeks, 50° C.): 72.0%
- Purity after storage ([3]; 2 weeks, 80° C.): 12.58%
- Purity after storage ([3]; 8 days, 80° C.): 26.07%
- Purity after storage ([3]; 10 days, 50° C.): 74.88%
- thermal stability ([3]; Baker et al., Column 1, Lines 31-33): poor thermal stability
- deterioration at high temperatures ([3]; chart in Columns 8 and 9 of the '093 patent): rapid deterioration at high temperatures
- water solubility [4]: sparingly water soluble

- Purity after storage ([1]; 2 weeks, 37° C., expressed as a percentage of mupirocin calcium dihydrate): 99.08%
- Purity after storage ([1]; 2 weeks, 50° C., expressed as a percentage of mupirocin calcium dihydrate): 97.60%
- Purity after storage ([1]; 2 weeks, 80° C., expressed as a percentage of mupirocin calcium dihydrate): 92.95%
- Purity after storage ([1]; 8 days, 80° C., expressed as a percentage of mupirocin calcium dihydrate): 95.91%
- Purity after storage ([1]; 10 days, 50° C., expressed as a percentage of mupirocin calcium dihydrate): 97.79%
SMILES: C/C(=C\C(=O)OCCCCCCCCC(=O)O)C[C@@H]1OC[C@H](C[C@@H]2O[C@H]2[C@@H](C)[C@H](C)O)[C@@H](O)[C@H]1O [Crystalline mupirocin calcium dihydrate, mupirocin calcium dihydrate]
- Purity after storage ([3]; 2 weeks, 37° C., calcium dihydrate): 92.28%
- Purity after storage ([3]; 2 weeks, 50° C., calcium dihydrate): 90.90%
- Purity after storage ([3]; 2 weeks, 80° C., calcium dihydrate): 86.57%
- Purity after storage ([3]; 8 days, 80° C., calcium dihydrate): 89.33%
- Purity after storage ([3]; 10 days, 50° C., calcium dihydrate): 91.08%

- Assay [2, 8]: 98.5
- Water [2, 8]: 1.2
- Assay ([2]; 1 Kg batch, 0 months at 25° C.): 98.5
- Water ([2]; 1 Kg batch, 0 months at 25° C.): 1.5
- Assay [2, 9]: 95.2
- Total Impurity [2, 9]: 2.71
- Water [2, 9]: 1.3
- Assay [2, 10]: 97.4
- Total Impurity [2, 10]: 2.83
- Water [2, 10]: 1.2
- Assay ([2]; 1 Kg batch, 1 month at 25° C.): 98.3
- Total Impurity ([2]; 1 Kg batch, 1 month at 25° C.): 3.18
- Water ([2]; 1 Kg batch, 1 month at 25° C.): 1.9
- Assay [2, 11]: 95.5
- Total Impurity [2, 11]: 2.88
- Water [2, 11]: 1.9
- Assay [2, 12]: 96.7
- Total Impurity [2, 12]: 2.86
- Water [2, 12]: 1.6
- Assay ([2]; 1 Kg batch, 2 months at 25° C.): 96.5
- Total Impurity ([2]; 1 Kg batch, 2 months at 25° C.): 3.21
- Water ([2]; 1 Kg batch, 2 months at 25° C.): 1.5
- Assay (HPLC) [2, 13]: 96.0%
- Description [2, 13]: White
- Impurities (HPLC) Imp. C [2, 13]: 1.31%
- Impurities (HPLC) MUP II [2, 13]: 0.31%
- Impurities (HPLC) Total Impurities [2, 13]: 2.22%
- Water [2, 13]: 0.6%
- Assay (HPLC) [2, 14]: 95.6%
- Description [2, 14]: White
- Water [2, 14]: 0.8%
- Assay (HPLC) [2, 15]: 95.3%
- Description [2, 15]: White
- Impurities (HPLC) Imp. C [2, 15]: 1.32%
- Impurities (HPLC) MUP II [2, 15]: 0.41%
- Impurities (HPLC) Total Impurities [2, 15]: 2.43%
- Water [2, 15]: 0.7%
- Assay (HPLC) [2, 16]: 96.1%
- Description [2, 16]: White
- Impurities (HPLC) Imp. C [2, 16]: 1.35%
- Impurities (HPLC) MUP II [2, 16]: 0.42%
- Impurities (HPLC) Total Impurities [2, 16]: 2.62%
- Water [2, 16]: 1.1%
- Assay (HPLC) [2, 17]: 96.0%
- Description [2, 17]: White powder
- Impurities (HPLC) Imp. C [2, 17]: 1.31%
- Impurities (HPLC) MUP II [2, 17]: 0.31%
- Impurities (HPLC) Total Impurities [2, 17]: 2.22%
- Water [2, 17]: 0.6%
- Assay (HPLC) [2, 18]: 97.5%
- Description [2, 18]: White
- Water [2, 18]: 0.8%
- Assay (HPLC) [2, 19]: 94.1%
- Description [2, 19]: White
- Impurities (HPLC) Imp. C [2, 19]: 1.34%
- Impurities (HPLC) MUP II [2, 19]: 0.77%
- Impurities (HPLC) Total Impurities [2, 19]: 3.02%
- Water [2, 19]: 0.8%
- Assay (HPLC) [2, 20]: 95.9%
- Description [2, 20]: White
- Impurities (HPLC) Imp. C [2, 20]: 1.37%
- Impurities (HPLC) MUP II [2, 20]: 0.89%
- Impurities (HPLC) Total Impurities [2, 20]: 3.25%
- Water [2, 20]: 1.0%
- total impurity content ([2]; after 2 months): about 3%
- Assay ([2]; after 2 months of storage at about 25° C. and at about 2-8° C.): about 96%
- total level of impurity (not assay) ([2]; after at least two months of storage at 25° C.): less than 3.5%
- level of impurity MUP II (impurity E in the EP) ([2]; storage at 25° C. and RH 60% for at least two months): ≤ 1%
SMILES: C/C(=C\C(=O)OCCCCCCCCC(=O)[O-])C[C@@H]1OC[C@H](C[C@@H]2O[C@H]2[C@@H](C)[C@H](C)O)[C@@H](O)[C@H]1O.C/C(=C\C(=O)OCCCCCCCCC(=O)[O-])C[C@@H]1OC[C@H](C[C@@H]2O[C@H]2[C@@H](C)[C@H](C)O)[C@@H](O)[C@H]1O.O.O.[Ca+2] [amorphous mupirocin calcium, mupirocin calcium]
